Legend:
human FPR2 = human FPR2 (Homo sapiens (Human), UniProt P25090); assay: FPR2 cyclic adenosine monophosphate (cAMP) assay; type: cell-based; conditions: CHO cells overexpressing human FPR2; forskolin 5 µM; inhibition of cAMP production; read-out: hFPR2 cAMP2 EC50
In short: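 CHO cells overexpressing human FPR2 (2,000/well) incubated 30 min at room temperature with compound (0.020 nM–100 µM, 1% DMSO), 5 µM forskolin and 200 µM IBMX.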

human FPR1 = human FPR1 (Homo sapiens (Human), UniProt P21462); assay: FPR1 cyclic adenosine monophosphate (cAMP) assay; type: cell-based; conditions: CHO cells overexpressing human FPR1; forskolin 10 µM; inhibition of cAMP production; read-out: hFPR1 cAMP EC50
In short: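 CHO cells overexpressing human FPR1 (4,000 cells/well) stimulated with 10 µM forskolin plus 200 µM IBMX in the presence of compound (0.020 nM–100 µM, 1% DMSO), 30 min at room temperature. Intracellular cAMP measured by HTRF. Inhibition of cAMP production fitted to a 4-parameter logistic equation.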

Chain of human FPR1 (P21462 whole entry): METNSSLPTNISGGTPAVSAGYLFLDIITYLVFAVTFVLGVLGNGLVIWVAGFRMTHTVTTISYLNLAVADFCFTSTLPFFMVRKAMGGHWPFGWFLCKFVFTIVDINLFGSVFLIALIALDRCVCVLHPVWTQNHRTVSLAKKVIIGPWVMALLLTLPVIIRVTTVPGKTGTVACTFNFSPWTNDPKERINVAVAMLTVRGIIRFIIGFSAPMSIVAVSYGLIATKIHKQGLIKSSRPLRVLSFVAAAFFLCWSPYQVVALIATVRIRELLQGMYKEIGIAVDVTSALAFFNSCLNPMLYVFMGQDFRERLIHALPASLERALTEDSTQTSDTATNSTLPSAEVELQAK
Chain of human FPR2 (P25090 whole entry): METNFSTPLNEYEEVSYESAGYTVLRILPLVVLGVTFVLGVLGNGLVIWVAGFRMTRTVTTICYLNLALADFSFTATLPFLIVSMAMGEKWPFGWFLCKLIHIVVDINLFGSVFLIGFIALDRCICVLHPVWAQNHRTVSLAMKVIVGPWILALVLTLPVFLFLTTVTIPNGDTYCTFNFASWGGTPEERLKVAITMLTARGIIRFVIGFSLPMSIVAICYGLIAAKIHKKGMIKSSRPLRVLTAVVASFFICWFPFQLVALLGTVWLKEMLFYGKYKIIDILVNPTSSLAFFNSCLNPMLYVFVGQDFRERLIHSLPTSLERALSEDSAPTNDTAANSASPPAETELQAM

SMILES	EC50 (human FPR2) [nM]	EC50 (human FPR1) [nM]
COc1cc(F)c([C@@H]2CN(c3cnn4c3OCCC4)C(=O)[C@H]2NC(=O)c2ccc(OC(F)F)cc2)c(F)c1 [Example 597]	1.5	210
COc1cc(F)c([C@@H]2CN(c3cnn4c3OCCC4)C(=O)[C@H]2NC(=O)c2ccc(OC(F)(F)F)cc2)c(F)c1 [Example 598]	6.2	590
COc1cc(F)c([C@@H]2CN(c3cccn4c(C)nnc34)C(=O)[C@H]2NC(=O)c2ccc(OC(F)F)cc2)c(F)c1 [Example 599]	4.1	40
COc1cc(F)c([C@@H]2CN(c3c(C)ccn(C(F)(F)C(=O)N4CCOCC4)c3=O)C(=O)[C@H]2NC(=O)c2ccc(OC(F)F)cc2)c(F)c1 [Example 600]	7.8	170
COc1cc(F)c([C@@H]2CN(c3c(C)ccn(C4CCNC4)c3=O)C(=O)[C@H]2NC(=O)c2ccc(OC(F)F)cc2)c(F)c1 (some centres unmarked) [Example 601]	2	170
COc1cc(F)c([C@@H]2CN(c3c(C)ccn(C4CCNC4)c3=O)C(=O)[C@H]2NC(=O)c2ccc(OC(F)(F)F)cc2)c(F)c1 (some centres unmarked) [Example 602]	3.8	88
COc1cc(F)c([C@@H]2CN(c3cccn4c(C)nnc34)C(=O)[C@H]2NC(=O)c2ccc(Cl)cc2)c(F)c1 [Example 603]	3.9	56
COc1cc(F)c([C@@H]2CN(c3cccn4c(C)nnc34)C(=O)[C@H]2NC(=O)c2ccc(OC(F)(F)F)cc2)c(F)c1 [Example 604]	0.5	15
COc1cc(F)c([C@@H]2CN(c3c(C)c4c(n(CCO)c3=O)CCCC4)C(=O)[C@H]2NC(=O)c2ccc(OC(F)F)cc2)c(F)c1 [Example 605]	< 5	1.9
COc1cc(F)c([C@@H]2CN(c3c(C)c4c(n(CCO)c3=O)CCCC4)C(=O)[C@H]2NC(=O)c2ccc(OC(F)(F)F)cc2)c(F)c1 [Example 606]	20	53
COc1cc(F)c([C@@H]2CN(c3c(C)c4c(n(CCO)c3=O)CCCC4)C(=O)[C@H]2NC(=O)c2ccc(Cl)cc2)c(F)c1 [Example 607]	13.3	30
O=C(N[C@@H]1C(=O)N(c2cccn(CC(O)C(F)(F)F)c2=O)C[C@H]1c1ccc(Cl)cc1)c1ccc(OC(F)(F)F)cc1 (some centres unmarked) [Example 608]	4.1	4.2
O=C(N[C@@H]1C(=O)N(c2cccn(CC(O)C(F)(F)F)c2=O)C[C@H]1c1ccc(Cl)cc1)c1ccc(OC(F)(F)F)cc1 (some centres unmarked) [Example 609]	1.8	28
COc1ccc([C@@H]2CN(c3c(C)ccn(CC4CC4)c3=O)C(=O)[C@H]2NC(=O)c2ccc(OC(F)F)cc2)cc1 [Example 610]	1	0.3
COc1cc(F)c([C@@H]2CN(c3c(C)ccn(CCC(F)(F)F)c3=O)C(=O)[C@H]2NC(=O)c2ccc(Cl)cc2)c(F)c1 [Example 611]	2.4	5.9
COc1cc(F)c([C@@H]2CN(c3c(C)ccn(C4CCNC4)c3=O)C(=O)[C@H]2NC(=O)c2ccc(OC(F)F)cc2)c(F)c1 (some centres unmarked) [Example 612]	13.5	33
COc1cc(F)c([C@@H]2CN(c3c(C)ccn(C4CCNC4)c3=O)C(=O)[C@H]2NC(=O)c2ccc(OC(F)(F)F)cc2)c(F)c1 (some centres unmarked) [Example 613]	11.8	9.3
COc1cc(F)c([C@@H]2CN(c3c(C)ccn(CC4CCO4)c3=O)C(=O)[C@H]2NC(=O)c2ccc(Cl)cc2)c(F)c1 (some centres unmarked) [Example 614]	6	33
COc1cc(F)c([C@@H]2CN(c3c(C)ccn(CC4CCO4)c3=O)C(=O)[C@H]2NC(=O)c2ccc(OC(F)(F)F)cc2)c(F)c1 (some centres unmarked) [Example 615]	8.7	5.3
COc1cc(F)c([C@@H]2CN(c3c(C)ccn(CC4CCO4)c3=O)C(=O)[C@H]2NC(=O)c2ccc(OC(F)F)cc2)c(F)c1 (some centres unmarked) [Example 616]	9.4	20
COc1cc(F)c([C@@H]2CN(c3c(C)ccn(CC4CCO4)c3=O)C(=O)[C@H]2NC(=O)c2ccc(OC(F)F)cc2)c(F)c1 (some centres unmarked) [Example 617]	9.1	18
COc1cc(F)c([C@@H]2CN(c3c(C)ccn(CC4CCO4)c3=O)C(=O)[C@H]2NC(=O)c2ccc(Cl)cc2)c(F)c1 (some centres unmarked) [Example 618]	1	9.5
COc1cc(F)c([C@@H]2CN(c3c(C)ccn(CC4CNC(=O)O4)c3=O)C(=O)[C@H]2NC(=O)c2ccc(OC(F)F)cc2)c(F)c1 (some centres unmarked) [Example 619]	9.4	64
COc1ccc([C@@H]2CN(c3ccnn(CC(F)F)c3=O)C(=O)[C@H]2NC(=O)c2ccc(OC(F)F)cc2)c(F)c1 [Example 620]	7.4	6.5
COc1cc(F)c([C@@H]2CN(c3c(C)ccn([C@H]4COC[C@@H]4O)c3=O)C(=O)[C@H]2NC(=O)c2ccc(Cl)cc2)c(F)c1 [Example 621]	90	64

SMILES	EC50 (human FPR2) [nM]	EC50 (human FPR1) [nM]
COc1cc(F)c([C@@H]2CN(c3c(C)ccn([C@H]4COC[C@@H]4O)c3=O)C(=O)[C@H]2NC(=O)c2ccc(OC(F)(F)F)cc2)c(F)c1 [Example 622]	8.4	2.2
COc1cc(F)c([C@@H]2CN(c3c(C)ccn([C@H]4COC[C@@H]4O)c3=O)C(=O)[C@H]2NC(=O)c2ccc(Cl)cc2)c(F)c1 [Example 623]	11.5	160
COc1cc(F)c([C@@H]2CN(c3c(C)ccn([C@H]4COC[C@@H]4O)c3=O)C(=O)[C@H]2NC(=O)c2ccc(OC(F)F)cc2)c(F)c1 [Example 624]	1.5	9.3
COc1cc(F)c([C@@H]2CN(c3c(C)ccn(C4CCS(=O)(=O)CC4)c3=O)C(=O)[C@H]2NC(=O)c2ccc(OC(F)F)cc2)c(F)c1 [Example 626]	0.7	13
COc1cc(F)c([C@@H]2CN(c3c(C)ccn(C4CCS(=O)(=O)CC4)c3=O)C(=O)[C@H]2NC(=O)c2ccc(OC(F)(F)F)cc2)c(F)c1 [Example 627]	8.6	2
COc1cc(F)c([C@@H]2CN(c3nn(C4COC4)c(=O)cc3C)C(=O)[C@H]2NC(=O)c2ccc(OC(F)F)cc2)c(F)c1 [Example 628]	4.7	59
COc1cc(F)c([C@@H]2CN(c3cn(C)nc3OC)C(=O)[C@H]2NC(=O)c2ccc(Cl)cc2)c(F)c1 [Example 629]	9.9	670
COc1cc(F)c([C@@H]2CN(c3cn(C)nc3OC)C(=O)[C@H]2NC(=O)c2ccc(OC(F)F)cc2)c(F)c1 [Example 630]	5.2	1100
COc1cc(F)c([C@@H]2CN(c3cn(C)nc3OC)C(=O)[C@H]2NC(=O)c2ccc(OC(F)(F)F)cc2)c(F)c1 [Example 631]	10	160
COc1ccc([C@@H]2CN(c3c(C)ccn(CC(F)F)c3=O)C(=O)[C@H]2NC(=O)c2ccc(OC(F)F)cc2)cc1 [Example 632]	0.9	3.7
COCCn1ccc(C)c(N2C[C@@H](c3c(F)cc(OC)cc3F)[C@H](NC(=O)c3ccc(Cl)cc3)C2=O)c1=O [Example 633]	1.4	4.3
COc1cc(F)c([C@@H]2CN(c3c(C)ccn(CC(O)C(F)(F)F)c3=O)C(=O)[C@H]2NC(=O)c2ccc(OC(F)F)cc2)c(F)c1 (some centres unmarked) [Example 634]	2	2.3
COCCn1ccc(C)c(N2C[C@@H](c3ccc(OC)cc3F)[C@H](NC(=O)c3ccc(Cl)cc3)C2=O)c1=O [Example 635]	3.7	6.3
COc1ccc([C@@H]2CN(c3c(C)ccn(CCO)c3=O)C(=O)[C@H]2NC(=O)c2ccc(OC(F)(F)F)cc2)c(F)c1 [Example 636]	1.6	3.2
COc1cc(F)c([C@@H]2CN(c3c(C)ccn(C4COC4)c3=O)C(=O)[C@H]2NC(=O)c2ccc(OC(F)(F)F)cc2)c(F)c1 [Example 637]	6.6	5.7
CCn1cc(C)c(C)c(N2C[C@@H](c3c(F)cc(OC)cc3F)C(NC(=O)c3ccc(OC(F)(F)F)cc3)C2=O)c1=O (some centres unmarked) [Example 638]	14	290
CCn1cc(C)c(C)c(N2C[C@@H](c3c(F)cc(OC)cc3F)C(NC(=O)c3ccc(OC(F)(F)F)cc3)C2=O)c1=O (some centres unmarked) [Example 639]	5.8	57
COCCn1cc(C)c(C)c(N2C[C@@H](c3c(F)cc(OC)cc3F)C(NC(=O)c3ccc(Cl)cc3)C2=O)c1=O (some centres unmarked) [Example 640]	2.2	1200
COCCn1cc(C)c(C)c(N2C[C@@H](c3c(F)cc(OC)cc3F)C(NC(=O)c3ccc(Cl)cc3)C2=O)c1=O (some centres unmarked) [Example 641]	2.8	1000
CCn1cc(C)c(C)c(N2C[C@@H](c3c(F)cc(OC)cc3F)[C@H](NC(=O)c3ccc(OC(F)F)cc3)C2=O)c1=O [Example 642]	15	570
COc1ccc([C@@H]2CN(c3cccn(CC(O)C(F)(F)F)c3=O)C(=O)[C@H]2NC(=O)c2ccc(OC(F)F)cc2)cc1 (some centres unmarked) [Example 643]	2.6	75
COc1ccc([C@@H]2CN(c3cccn(CC(O)C(F)(F)F)c3=O)C(=O)[C@H]2NC(=O)c2ccc(OC(F)F)cc2)cc1 (some centres unmarked) [Example 644]	2.1	64
COc1ccc([C@@H]2CN(c3ccnn(CCC(F)(F)F)c3=O)C(=O)[C@H]2NC(=O)c2ccc(OC(F)F)cc2)cc1 [Example 645]	2.8	190
COc1cc(F)c([C@@H]2CN(c3c4c(cn(CCO)c3=O)CCCC4)C(=O)[C@H]2NC(=O)c2ccc(OC(F)F)cc2)c(F)c1 [Example 646]	16	670
